Measured values published in patent publication US6608086B2, “Dihydropyridines and new uses thereof” (Synaptic Pharmaceutical Corporation, priority 1993, dated 2003).
Read-outs that look alike come from different tables or passages of the source.

Legend:
[1] = target: T1, α1B Human Adrenergic Receptor (Homo sapiens, UniProt P35368); assay: Radioligand binding, [3H]prazosin, cloned human α1B adrenergic receptor
T1 construct: The entire coding region of α1B (1563 bp); expressed in transfected cells
T1 sequence (P35368 1-520): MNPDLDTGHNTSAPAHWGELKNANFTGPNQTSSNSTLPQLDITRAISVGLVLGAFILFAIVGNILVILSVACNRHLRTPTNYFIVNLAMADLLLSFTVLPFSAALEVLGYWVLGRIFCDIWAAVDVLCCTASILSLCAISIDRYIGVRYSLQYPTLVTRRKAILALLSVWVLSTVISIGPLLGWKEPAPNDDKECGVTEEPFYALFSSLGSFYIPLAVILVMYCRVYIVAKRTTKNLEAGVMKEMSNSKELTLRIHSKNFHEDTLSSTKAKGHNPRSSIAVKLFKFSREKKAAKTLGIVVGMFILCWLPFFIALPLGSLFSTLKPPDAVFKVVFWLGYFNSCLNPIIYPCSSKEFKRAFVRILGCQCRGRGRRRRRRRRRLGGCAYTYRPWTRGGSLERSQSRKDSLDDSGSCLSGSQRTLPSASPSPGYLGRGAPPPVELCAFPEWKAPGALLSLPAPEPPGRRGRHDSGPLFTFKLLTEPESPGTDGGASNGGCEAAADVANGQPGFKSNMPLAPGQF
Description: (§1) The protocols for these experiments are given below.
(§2) These cell lines were prepared by transfecting the cloned cDNA or cloned genomic DNA or constructs containing both genomic DNA and cDNA encoding the human α-adrenergic receptors as follows:
α1B Human Adrenergic Receptor:
The construct involved ligating the full-length containing EcoRI brainstem cDNA fragment from λ ZapII into the expression vector. Stable cell lines were selected as described above.
(§3) Radioligand Binding Assays:
(§4) Transfected cells from culture flasks were scraped into 5 ml of 5 mM Tris-HCl, 5 mM EDTA, pH 7.5, and lysed by sonication. The cell lysates were centrifuged at 1000 rpm for 5 min at 4° C., and the supernatant was centrifuged at 30,000× g for 20 min at 4° C. The pellet was suspended in 50 mM Tris-HCl, 1 mM MgCl2, and 0.1% ascorbic acid at pH 7.5. Binding of the α1 antagonist [^3H]prazosin (0.5 nM, specific activity 76.2 Ci/mmol) to membrane preparations of LM(tk−) cells was done in a final volume of 0.25 ml and incubated at 37° C. for 20 min. Nonspecific binding was determined in the presence of 10 μM phentolamine. The reaction was stopped by filtration through GF/B filters using a cell harvester.

[2] = target: T2, α1A Human Adrenergic Receptor (Homo sapiens, UniProt P25100); assay: Radioligand binding, [3H]prazosin, cloned human α1A adrenergic receptor; conditions: [3H]prazosin
T2 construct: The entire coding region of α1A (1719 bp); expressed in transfected cells
T2 sequence (P25100 1-572): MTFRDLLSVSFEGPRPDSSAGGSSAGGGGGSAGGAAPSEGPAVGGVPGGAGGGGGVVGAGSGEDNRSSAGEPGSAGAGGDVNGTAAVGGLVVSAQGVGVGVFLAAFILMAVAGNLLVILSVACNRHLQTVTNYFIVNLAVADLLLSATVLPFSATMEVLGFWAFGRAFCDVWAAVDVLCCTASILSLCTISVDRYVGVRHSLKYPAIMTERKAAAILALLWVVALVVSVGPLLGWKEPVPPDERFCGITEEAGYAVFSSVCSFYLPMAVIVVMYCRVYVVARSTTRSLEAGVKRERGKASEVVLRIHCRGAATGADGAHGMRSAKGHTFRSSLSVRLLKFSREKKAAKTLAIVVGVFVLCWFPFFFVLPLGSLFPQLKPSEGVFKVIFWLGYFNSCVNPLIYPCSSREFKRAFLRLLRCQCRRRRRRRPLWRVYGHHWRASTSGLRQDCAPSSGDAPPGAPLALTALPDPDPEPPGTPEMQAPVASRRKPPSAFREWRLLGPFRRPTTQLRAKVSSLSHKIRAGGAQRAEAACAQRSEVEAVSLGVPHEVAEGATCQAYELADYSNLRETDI
Description: as §1, §2
α1A Human Adrenergic Receptor:
The cells were grown, in a controlled environment (37° C., 5% CO2), as monolayers in Dulbecco's modified Eagle's Medium (GIBCO, Grand Island, N.Y.) containing 25 mM glucose and supplemented with 10% bovine calf serum, 100 units/ml penicillin g, and 100 μg/ml streptomycin sulfate.
as §3, §4

[3] = target: T3, α1C Human Adrenergic Receptor (Homo sapiens, UniProt P35348); assay: Radioligand binding, [3H]prazosin, cloned human α1C adrenergic receptor
T3 construct: The entire coding region of α1C (1401 bp); expressed in transfected cells
T3 sequence (P35348 1-466): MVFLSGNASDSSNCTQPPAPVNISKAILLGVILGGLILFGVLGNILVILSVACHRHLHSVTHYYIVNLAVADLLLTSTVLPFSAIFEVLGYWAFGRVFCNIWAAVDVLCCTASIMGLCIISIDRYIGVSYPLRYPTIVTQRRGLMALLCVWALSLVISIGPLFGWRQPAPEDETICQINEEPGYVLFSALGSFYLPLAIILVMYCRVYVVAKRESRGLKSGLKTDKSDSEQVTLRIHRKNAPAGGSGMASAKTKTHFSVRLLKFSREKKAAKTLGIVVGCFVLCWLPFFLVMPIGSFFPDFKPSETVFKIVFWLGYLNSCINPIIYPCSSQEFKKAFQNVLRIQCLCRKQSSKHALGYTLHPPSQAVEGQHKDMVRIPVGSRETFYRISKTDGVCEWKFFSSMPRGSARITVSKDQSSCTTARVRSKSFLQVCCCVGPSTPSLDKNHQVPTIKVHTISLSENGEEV
Description: as §1, §2
α1C Human Adrenergic Receptor:
The construct involved ligating three partial overlapping fragments: a 5′, 0.6 kb HincII genomic clone, a central 1.8 EcoRI hippocampal cDNA clone, and a 3′ 0.6Kb PstI genomic clone. The hippocampal cDNA fragment overlaps with the 5′ and 3′ genomic clones so that the HincII and PstI sites at the 5′ and 3′ ends of the cDNA clone, respectively, were utilized for ligation. This full-length clone was cloned into the KpnI site of the expression vector, using the 5′ and 3′ KpnI sites of the fragment, derived from vector (i.e., pBluescript) and 3′-untranslated sequences, respectively. Stable cell lines were selected as described above.
as §3, §4

[4] = cloned human α1B receptor, LM(tk−) cell membranes, read-out: pKi alpha-1 1b (converted)
[5] = cloned human α1A receptor, LM(tk−) cell membranes, read-out: pKi alpha-1 1a (converted)
[6] = cloned human α1C receptor, LM(tk−) cell membranes, read-out: pKi alpha-1 1c (converted)
[7] = cloned human receptor, LM(tk-) cell membranes, mean, read-out: PKi alpha-1 1b (converted)
[8] = cloned human receptor, LM(tk-) cell membranes, mean, read-out: PKi alpha-1 1a (converted)
[9] = cloned human receptor, LM(tk-) cell membranes, mean, read-out: PKi alpha-1 1c (converted)

SMILES | Ki [1, 4] | Ki [2, 5] | melting point | Ki [3, 6] | Ki ([1]; PKi alpha-1 1b, cloned human receptor, LM(tk-) cell membranes, mean) | Ki ([2]; PKi alpha-1 1a, cloned human receptor, LM(tk-) cell membranes, mean) | Ki ([3]; PKi alpha-1 1c, cloned human receptor, LM(tk-) cell membranes, mean) | Ki [1, 7] | Ki [2, 8] | Ki [3, 9]
CCC1=C(C(=O)NC)C(c2ccc([N+](=O)[O-])cc2)C(C(=O)NCCCN2CCC(C(c3ccccc3)c3ccccc3)CC2)=C(CC)N1 (stereo not drawn) [Example 109, 2,6-Diethyl-1,4-dihydro-5-(N-methyl) carboxamido-4-(4-nitrophenyl)-3-{-[13-(4-diphenylmethylpiperidin-1-yl)propyl]}carboxamidopyridine] | 275 nM | 851 nM | 128 °C (dec.) | 66.1 nM | – | – | – | – | – | –
CCC1=C(C(=O)NC)C(c2ccc([N+](=O)[O-])cc2)C(C(=O)NCCCN2CCC(C(N)=O)(c3ccccc3)CC2)=C(CC)N1 (stereo not drawn) [Example 110, 3-{N-[3-(4-Carboxamido-4-phenylpiperidin-1-yl)propyl]}carboxamido-2,6-diethyl-1,4-dihydro-5-(N-methyl)carboxamido-4-(4-nitrophenyl)pyridine] | 31600 nM | 17800 nM | 124 °C (dec.) | 1550 nM | – | – | – | – | – | –
CNC(=O)C1=C(C)NC(C)=C(C(=O)NCCCN2CCC(C(=O)OC)(c3ccccc3)CC2)C1c1ccc2c(c1)OCCO2 (stereo not drawn) [Example 164, 4-(3,4-Ethylenedioxyphenyl)-1,4-Dihydro-3-{N-[3-(4-methoxycarbonyl-4-phenylpiperidin-1-yl)propyl]}carboxamido-2,6-dimethyl-5-[(N-methyl)carboxamido]pyridine] | – | – | 101 to 104 °C | – | – | – | – | 1780 nM | 2950 nM | 22.9 nM
CCOC(=O)C1(c2ccccc2)CCN(CCCNC(=O)C2=C(CC)NC(CC)=C(C(=O)NC)C2c2ccc([N+](=O)[O-])cc2)CC1 (stereo not drawn) [Example 181, 2,6-Diethyl-1,4-dihydro-3-{N-[3-(4-ethoxycarbonyl-4-phenylpiperidin-1-yl)propyl]}carboxamido-5-(N-methyl) carboxamido-4-(4-nitrophenyl)pyridine] | – | – | 95 to 97 °C | – | – | – | – | 1070 nM | 3470 nM | 4.07 nM
CCOC(=O)C1(c2ccccc2)CCN(CCCNC(=O)C2=C(COCCN=[N+]=[N-])NC(CC)=C(C(=O)O)C2c2ccc([N+](=O)[O-])cc2)CC1 (stereo not drawn) [Example 189] | – | – | 109 to 110 °C | – | – | – | – | 1410 nM | 4680 nM | 26.3 nM

Continued, in another order:

Ki [1, 4] | Ki [2, 5] | melting point | Ki [3, 6] | Ki ([1]; PKi alpha-1 1b, cloned human receptor, LM(tk-) cell membranes, mean) | Ki ([2]; PKi alpha-1 1a, cloned human receptor, LM(tk-) cell membranes, mean) | Ki ([3]; PKi alpha-1 1c, cloned human receptor, LM(tk-) cell membranes, mean) | SMILES | Ki [1, 7] | Ki [2, 8] | Ki [3, 9]
1000 nM | 871 nM | 133 °C (dec.) | 5.89 nM | – | – | – | CCC1=C(C(=O)NC)C(c2ccc([N+](=O)[O-])cc2)C(C(=O)NCCCN2CCC(c3ccccc3)(c3ccc(OC)cc3)CC2)=C(CC)N1 (stereo not drawn) [Example 107] | – | – | –
955 nM | 1780 nM | 172 °C (dec.) | 5.75 nM | – | – | – | CCNC(=O)C1=C(CC)NC(CC)=C(C(=O)NCCCN2CCC(c3ccccc3)(c3ccc(OC)cc3)CC2)C1c1ccc([N+](=O)[O-])cc1 (stereo not drawn) [Example 111, 2,6-Diethyl-5-(N-ethyl)carboxamido-1,4-dihydro-3-{N-[3-(4-(4-methoxy)phenyl-4-phenylpiperidin-1-yl)propyl]}carboxamido-4-(4-nitrophenyl)pyridine] | – | – | –
407 nM | 832 nM | 120 to 125 °C (dec.) | 3.47 nM | – | – | – | CCC1=C(C(=O)O)C(c2ccc([N+](=O)[O-])cc2)C(C(=O)NCCCN2CCC(c3ccccc3)(c3ccccc3)CC2)=C(COC)N1 (stereo not drawn) [Example 136, 6-Ethyl-1,4-dihydro-2-(methyloxy)methyl-4-(4-nitro)phenyl-3-(N-(3-(4,4-diphenylpiperidin-1-yl)propyl))carboxamidopyridine-5-carboxylic acid] | – | – | –
324 nM | 380 nM | 82 to 87 °C | 6.17 nM | – | – | – | CCNC(=O)C1=C(CC)NC(COCCN=[N+]=[N-])=C(C(=O)NCCCN2CCC(c3ccccc3)(c3ccccc3)CC2)C1c1ccc([N+](=O)[O-])cc1 (stereo not drawn) [Example 145, 2-((2-Azidoethyl)oxy)methyl-6-methyl-6-ethyl-5-(N-ethyl) carboxamido-1,4-dihydro-4-(4-nitro)phenyl-3-(N-(3-(4,4-diphenylpiperidin-1-yl)propyl))carboxamidopyridine] | – | – | –
380 nM | 1910 nM | 135 °C (dec.) | 24 nM | – | – | – | CC1=C(C(=O)O)C(c2ccc([N+](=O)[O-])cc2)C(C(=O)NCCCN2CCC(c3ccccc3)(c3ccccc3)CC2)=C(COCCN=[N+]=[N-])N1 (stereo not drawn) [Example 153, 2-((2-Azidoethyl)oxy)methyl-1,4-dihydro-6-methyl-4-(4-nitro) phenyl-3-(N-(3-(4,4-diphenylpiperidin-1-yl)propyl))carboxamidopyridine-5-carboxylic acid] | – | – | –
87.1 nM | 112 nM | 90 to 95 °C (dec.) | 1.82 nM | – | – | – | CC1=C(C(N)=O)C(c2ccc([N+](=O)[O-])cc2)C(C(=O)NCCCN2CCC(c3ccccc3)(c3ccccc3)CC2)=C(COCCN=[N+]=[N-])N1 (stereo not drawn) [Example 154, 2-((2-Azidoethyl)oxy)methyl-5-carboxamido-1,4-dihydro-6-methyl-4-(4-nitro)phenyl-3-(N-(3-(4,4-diphenylpiperidin-1-yl)propyl))carboxamidopyridine] | – | – | –
– | – | 75 to 78 °C | – | 229 nM | 513 nM | 7.24 nM | CC1=C(C(N)=O)C(c2ccc([N+](=O)[O-])cc2)C(C(=O)NCCCN2CCC(c3ccccc3)(c3ccccc3)CC2)=C(CCCCCN)N1 (stereo not drawn) [Example 169, 2-(5-Aminopentyl)-5-carboxamido-1,4-dihydro-6-methyl-4-(4-nitrophenyl)-3-{N-[3-(4,4-diphenylpiperidin-1-yl)propyl]}carboxamidopyridine] | – | – | –
